Marks after values point to notes of the source that are not given here.
Experiments:
Sirt1 = Sirt1 protein expression Western blot in myotubes; format: cell-based, mouse; conditions: C2C12 myotubes, FIG. 12
Experimental: (§1) Cell Culture: C2C12 and 3T3-L1 preadipocytes (American Type Culture Collection) were plated at a density of 8000 cells/cm^2 (10 cm^2 dish) and grown in Dulbecco's modified eagle's medium (DMEM) containing 10% fetal bovine serum (FBS), and antibiotics (growth medium) at 37° C. in 5% CO2. Confluent 3T3-L1 preadipocytes were induced to differentiate with a standard differentiation medium consisting of DMEM medium supplemented with 10% FBS, 250 nM dexamethasone, 0.5 mM 3-Isobutyl-1-methylxanthine (IBMX) and 1% penicillin-streptomycin. Preadipocytes were maintained in this differentiation medium for 3 days and subsequently cultured in growth medium. Cultures were re-fed every 2-3 days to allow >90% cells to reach fully differentiation before conducting chemical treatment. […]
Western blot: The Phospho-AMPKα (Thr172)- and Sirt1 (mouse specific)-antibody was obtained from Cell Signaling (Danvers, Mass.). […] Protein was measured by BCA kit (Thermo Scientific). […] Visualization and chemiluminescent detection was conducted using BioRad ChemiDoc instrumentation and software (Bio-Rad Laboratories, Hercules, Calif.) and band intensity was assessed using Image Lab 4.0 (Bio-Rad Laboratories, Hercules, Calif.), with correction for background and loading controls. P-AMPK was detected at 61-66 kDA and Sirt1 was detected at 104-115 kDA.

3T3-L1 adipocytes [1] = experiment: Glucose utilization (extracellular acidification) in adipocytes; format: cell-based; conditions: FIG. 10
Experimental: as §1
(§2) Glucose Utilization: In the absence of a fatty acid source and oxidative metabolism, glycolysis and subsequent lactate production results in extracellular acidification, which was also measured using a Seahorse Bioscience XF24 analyzer. […] Data for each sample were normalized to the pre-glucose injection baseline for that sample and expressed as % change from that baseline. The area under of the curve of extracellular acidification change from baseline for each sample was the calculated and used for subsequent analysis.

C2C12 myotubes [2] = experiment: Fatty acid oxidation (O2 consumption response to palmitate) in myotubes; format: cell-based; conditions: vs control
Experimental: Cell Culture: C2C12 and 3T3-L1 preadipocytes (American Type Culture Collection) were plated at a density of 8000 cells/cm^2 (10 cm^2 dish) and grown in Dulbecco's modified eagle's medium (DMEM) containing 10% fetal bovine serum (FBS), and antibiotics (growth medium) at 37° C. in 5% CO2. Confluent 3T3-L1 preadipocytes were induced to differentiate with a standard differentiation medium consisting of DMEM medium supplemented with 10% FBS, 250 nM dexamethasone, 0.5 mM 3-Isobutyl-1-methylxanthine (IBMX) and 1% penicillin-streptomycin. Preadipocytes were maintained in this differentiation medium for 3 days and subsequently cultured in growth medium. Cultures were re-fed every 2-3 days to allow >90% cells to reach fully differentiation before conducting chemical treatment. For differentiation of C2C12 cells, cells were grown to 100% confluence, transferred to differentiation medium (DMEM with 2% horse serum and 1% penicillin-streptomycin), and fed with fresh differentiation medium every day until myotubes were fully formed (3 days). Fatty acid oxidation: Cellular oxygen consumption was measured using a Seahorse Bioscience XF24 analyzer (Seahorse Bioscience, Billerica, Mass.) in 24-well plates at 37° C., as described by Feige et al (1) with slight modifications. Cells were seeded at 40,000 cells per well, differentiated as described above, treated for 24 hours with the indicated treatments, washed twice with non-buffered carbonate-free pH 7.4 low glucose (2.5 mM) DMEM containing carnitine (0.5 mM), equilibrated with 550 μL of the same media in a non-CO2 incubator for 45 minutes, and then inserted into the instrument for 15 minutes of further equilibration, followed by O2 consumption measurement. Three successive baseline measurements at five-minute intervals were taken prior to injection of palmitate (200 μM final concentration). Four successive 5-minute measurements of O2 consumption were then conducted, followed by 10 minute re-equilibration and another 3-4 5-minute measurements. This measurement pattern was then repeated over a 4-6 hour period. Data for each sample were normalized to the pre-palmitate injection baseline for that sample and expressed as % change from that baseline. […] The area under of the curve of O2 consumption change from baseline for each sample was then calculated and used for subsequent analysis.

3T3-L1 adipocytes [3] = experiment: Intracellular Ca2+ by fura-2 imaging in adipocytes; format: cell-based
Experimental: Cell culture: 3T3-L1 pre-adipocytes were incubated at a density of 8000 cells/cm^2 (10 cm^2 dish) and grown in the absence of insulin in Dulbecco's modified Eagle's medium (DMEM) containing 10% FBS and antibiotics (1% penicillin-streptomycin)(adipocyte medium) at 37° C. in 5% CO2 in air. Confluent pre-adipocytes were induced to differentiate with a standard differentiation medium consisting of DMEM-F10 (1:1, vol/vol) medium supplemented with 1% fetal bovine serum (FBS), 250 nM dexamethasone (DEXA), isobutylmethylxanthine (IBMX) (0.5 mM) and antibiotics. Pre-adipocytes were maintained in this differentiation medium for 3 days (unless specifically indicated) and subsequently cultured in adipocyte medium. Cultures were re-fed every 2-3 days to allow 90% cells to reach fully differentiation before treatment.
Intracellular Ca^2+ ([Ca^2+]i): [Ca^2+]i was measured using a fura-2 dual wavelength fluorescence imaging system. Adipocytes were plated and differentiated in 35 mm dishes with glass coverslips (P35G-0-14-C, MatTek Corporation). Prior to [Ca^2+]i measurement, cells were preincubated in serum-free medium overnight and rinsed with Hepes Balanced Salt Solution (HBSS) containing the following components (in mM): NaCl 138, CaCl2 1.8, MgSO4 0.8, NaH2PO4 0.9, NaHCO3 4, glucose 5, glutamine 6, Hepes 20, and bovine serum albumin 1%. Cells were loaded with fura-2 acetoxymethyl ester (AM) (10 μM) in the same buffer for 2 hr at 37° C. in a dark incubator with 5% CO2. To remove extracellular dye, cells were rinsed with HBSS 3 times and then postincubated at room temperature for an additional 1 hr for complete hydrolysis of cytoplasmic fura-2 AM. The dishes with dye-loaded cells were mounted on the stage of Nikon TMS-F fluorescence inverted microscope with a Cohu 4915 CCD camera. Fluorescent images were captured alternatively at excitation wavelength of […] with an emission wavelength of 520 nm. [Ca^2]i was calculated using a standard ratio equation. Each analysis evaluated responses of 8-10 representative whole cells. Images were analyzed with InCytIm2 version 4.62 imaging software (Intracellular Imaging, Cincinnati, Ohio). Images were calibrated using a fura-2 calcium imaging calibration kit (Molecular Probes, Eugene, Oreg.) to create a calibration curve in solution, and cellular calibration was accomplished using digitonin (25 μM) and pH 8.7 Tris-EGTA (100 mM) to measure maximal and minimal [Ca^2+]i levels.

C2C12 myotubes [4] = experiment: Glucose utilization (extracellular acidification) in myotubes; format: cell-based; conditions: FIG. 9
Experimental: as §1, §2

Phospho-AMPKα (Thr172) = Phospho-AMPKα (Thr172) Western blot in myotubes; format: cell-based; conditions: C2C12 myotubes, FIG. 11
Experimental: (§3) Cell Culture: C2C12 and 3T3-L1 preadipocytes (American Type Culture Collection) were plated at a density of 8000 cells/cm^2 (10 cm^2 dish) and grown in Dulbecco's modified eagle's medium (DMEM) containing 10% fetal bovine serum (FBS), and antibiotics (growth medium) at 37° C. in 5% CO2. Confluent 3T3-L1 preadipocytes were induced to differentiate with a standard differentiation medium consisting of DMEM medium supplemented with 10% FBS, 250 nM dexamethasone, 0.5 mM 3-Isobutyl-1-methylxanthine (IBMX) and 1% penicillin-streptomycin. Preadipocytes were maintained in this differentiation medium for 3 days and subsequently cultured in growth medium. Cultures were re-fed every 2-3 days to allow >90% cells to reach fully differentiation before conducting chemical treatment. For differentiation of C2C12 cells, cells were grown to 100% confluence, transferred to differentiation medium (DMEM with 2% horse serum and 1% penicillin-streptomycin), and fed with fresh differentiation medium every day until myotubes were fully formed (3 days).
Western blot: The Phospho-AMPKα (Thr172)- and Sirt1 (mouse specific)-antibody was obtained from Cell Signaling (Danvers, Mass.). C2C12 myotubes were treated as indicated in results and the cellular fractions were prepared using standard methods. Protein was measured by BCA kit (Thermo Scientific). […] Visualization and chemiluminescent detection was conducted using BioRad ChemiDoc instrumentation and software (Bio-Rad Laboratories, Hercules, Calif.) and band intensity was assessed using Image Lab 4.0 (Bio-Rad Laboratories, Hercules, Calif.), with correction for background and loading controls. P-AMPK was detected at 61-66 kDA and Sirt1 was detected at 104-115 kDA.

C2C12 myotubes [5] = experiment: Mitochondrial biogenesis (mitochondrial mass, NAO probe); format: cell-based; conditions: FIG. 13
Experimental: as §3, with “days). Mitochondrial biogenesis: Mitochondrial biogenesis was assessed as change in mitochondrial mass, as previously described (2). The mitochondrial probe NAO (Invitrogen, Carlsbad, Calif.) was used to analyze mitochondrial mass by fluorescence (excitation 485 nm and emission 520 nm) and quantitative data was obtained with a fluorescence microplate reader (Synergy HT, BioTek Instruments, Winooski, Vt.). The intensity of fluorescence was expressed as arbitrary units per μg protein and normalized to control values within each assay.” for “days).”

3T3-L1 adipocytes [6] = experiment: Fatty acid oxidation (O2 consumption response to palmitate) in adipocytes; format: cell-based; conditions: FIG. 8, % change from control
Experimental: as §1
Fatty acid oxidation: Cellular oxygen consumption was measured using a Seahorse Bioscience XF24 analyzer (Seahorse Bioscience, Billerica, Mass.) in 24-well plates at 37° C., as described by Feige et al (1) with slight modifications. […] Data for each sample were normalized to the pre-palmitate injection baseline for that sample and expressed as % change from that baseline. […] The area under of the curve of O2 consumption change from baseline for each sample was then calculated and used for subsequent analysis.

[7] = FIG. 4/5, 24 hours, leucine, valine, isoleucine 0.5 mM, B6 100 nM as pyridoxal phosphate

Cc1ncc(COP(=O)(O)O)c(C=O)c1O [PLP, pyridoxal phosphate]
Sirt1 protein levels, increase (Sirt1): unaffected | increase in glucose utilization (3T3-L1 adipocytes [1]): no independent effect | increase in fatty acid oxidation (C2C12 myotubes [2]; [7]): no significant independent effect | Intracellular Ca2+ (3T3-L1 adipocytes [3]; PLP 50 nM): 133.2^c ± nM | Intracellular Ca2+ (3T3-L1 adipocytes [3]; PLP 100 nM): 96.3^b ± nM | increase in glucose utilization (C2C12 myotubes [4]): no independent effect | AMPK activation (Phosphorylated AMPK Thr172), increase (Phospho-AMPKα (Thr172)): Neither treatment with leucine, valine, nor B6 alone exerted any significant effect

CC[C@H](C)[C@H](N)C(=O)O [isoleucine]
increase in fatty acid oxidation (C2C12 myotubes [2]; [7]): small change in fatty acid oxidation when compared to control | increase in mitochondrial biogenesis (mitochondrial biomass) (C2C12 myotubes [5]): no significant effect | increase in fatty acid oxidation (3T3-L1 adipocytes [6]): small change from baseline

CN(C)C(=N)N=C(N)N [metformin]
increase in fatty acid oxidation (C2C12 myotubes [2]; FIG. 6/7, metformin 100 μM): comparable effect | increase in mitochondrial biogenesis (mitochondrial biomass) (C2C12 myotubes [5]): effect similar to leucine

CC(C)[C@H](N)C(=O)O [valine]
increase in fatty acid oxidation (C2C12 myotubes [2]; [7]): small change in fatty acid oxidation when compared to control | increase in mitochondrial biogenesis (mitochondrial biomass) (C2C12 myotubes [5]): no significant effect | AMPK activation (Phosphorylated AMPK Thr172), increase (Phospho-AMPKα (Thr172)): Neither treatment with leucine, valine, nor B6 alone exerted any significant effect

Reference: US9901573B2, “Compositions, methods, and kits for regulating energy metabolism” (NuSirt Sciences, Inc., priority 2012, dated 2018)
